Measured values as given in ChEMBL document CHEMBL3046062, “Anti-HIV, antimycobacterial and antimicrobial studies of newly synthesized 1,2,4-triazole clubbed benzothiazoles” (Med Chem Res, 2013).
≈ marks a conversion by molar mass, not a printed value.

Key:
[1] = tested on: Human immunodeficiency virus 2; test: Antiviral activity against Human immunodeficiency virus type 2 (ISOLATE ROD) infected MT4 cells assessed as inhibition of virus-induced cytopathogenicity after 5 days by MTT assay; format: functional, organism-based; conditions: Human immunodeficiency virus 2, ISOLATE ROD, MT4, 120 h
[2] = Selectivity index, ratio of CC50 for human MT4 cells to IC50 for HIV1 3B; format: functional
[3] = tested on: Human immunodeficiency virus 1; test: Antiviral activity against Human immunodeficiency virus 1 IIIB infected MT4 cells assessed as inhibition of virus-induced cytopathogenicity after 5 days by MTT assay; format: functional, organism-based; conditions: MT4, 120 h
[4] = Cytotoxicity against Homo sapiens (human) MT4 cells after 5 days by MTT assay; format: cell-based
[5] = Selectivity index, ratio of CC50 for human MT4 cells to IC50 for HIV2 ROD; format: functional
Aspergillus clavatus = test: Antifungal activity against Aspergillus clavatus MTCC 323 after overnight incubation by broth microdilution method; format: functional
Staphylococcus aureus = test: Antibacterial activity against Staphylococcus aureus MTCC 96 after overnight incubation by broth microdilution method; format: functional
Candida albicans = test: Antifungal activity against Candida albicans MTCC 227 after overnight incubation by broth microdilution method; format: functional
Streptococcus pyogenes = test: Antibacterial activity against Streptococcus pyogenes MTCC 443 after overnight incubation by broth microdilution method; format: functional
[6] = tested on: Mycobacterium tuberculosis; test: Growth inhibition of Mycobacterium tuberculosis H37Rv at MIC after 28 days by Lowenstein-Jensen agar method; format: functional
Aspergillus niger = test: Antifungal activity against Aspergillus niger MTCC 282 after overnight incubation by broth microdilution method; format: functional
Escherichia coli = test: Antibacterial activity against Escherichia coli MTCC 442 after overnight incubation by broth microdilution method; format: functional
[7] = tested on: Mycobacterium tuberculosis; test: Antitubercular activity against Mycobacterium tuberculosis H37Rv after 28 days by Lowenstein-Jensen agar method; format: functional; conditions: 672 h
Pseudomonas aeruginosa = test: Antibacterial activity against Pseudomonas aeruginosa MTCC 2488 after overnight incubation by broth microdilution method; format: functional

Row | Compound | IC50 [1] [µg/mL] | Ratio CC50/IC50 [2] | IC50 [3] [µg/mL] | CC50 at 120 h [4] [µg/mL] | Ratio CC50/IC50 [5] | MIC99 (Aspergillus clavatus) [µg/mL] | MIC99 (Staphylococcus aureus) [µg/mL] | MIC99 (Candida albicans) [µg/mL] | MIC99 (Streptococcus pyogenes) [µg/mL] | growth inhibition (GI) [6] [%] | MIC99 (Aspergillus niger) [µg/mL] | MIC99 (Escherichia coli) [µg/mL] | MIC [7] [µg/mL] | MIC99 (Pseudomonas aeruginosa) [µg/mL]
1 | NNc1nc2ccc(F)cc2s1 | > 13.8 | <1 | > 13.8 | 13.8 (≈ 75.2 µM) | <1 |  |  |  |  |  |  |  |  | 
2 | NNc1nc2ccc(Br)cc2s1 | > 8.01 | <1 | > 8.01 | 8.01 (≈ 32.8 µM) | <1 |  |  |  |  |  |  |  |  | 
3 | NNc1nc2ccc([N+](=O)[O-])cc2s1 | > 12.8 | <1 | > 12.8 | 12.8 (≈ 60.9 µM) | <1 |  |  |  |  |  |  |  |  | 
4 | Cc1ccc2nc(NN)sc2c1 | > 4.52 | <1 | > 4.52 | 4.52 (≈ 25.2 µM) | <1 |  |  |  |  |  |  |  |  | 
5 | COc1ccc2nc(NN)sc2c1 | > 14.8 | <1 | > 14.8 | 14.8 (≈ 75.7 µM) | <1 |  |  |  |  |  |  |  |  | 
6 | NNc1nc2ccc(Cl)cc2s1 | > 2.48 | <1 | > 2.48 | 2.48 (≈ 12.4 µM) | <1 |  |  |  |  |  |  |  |  | 
7 | Cc1cccc2sc(NN)nc12 | > 9.8 | <1 | > 9.8 | 9.8 (≈ 54.7 µM) | <1 |  |  |  |  |  |  |  |  | 
8 | NNc1nc2c([N+](=O)[O-])cccc2s1 | > 14.5 | <1 | > 14.5 | 14.5 (≈ 68.9 µM) | <1 |  |  |  |  |  |  |  |  | 
9 | NNc1nc2cc(Cl)c(Cl)cc2s1 | > 80 | <1 | > 80 | 80 (≈ 342 µM) | <1 |  |  |  |  |  |  |  |  | 
10 | NNc1nc2c(Cl)cccc2s1 | > 117 | 1 | > 117 | 117 (≈ 586 µM) | 1 |  |  |  |  |  |  |  |  | 
11 | O=[N+]([O-])c1ccc(-c2nnc(-c3cccnc3)n2Nc2nc3ccc(F)cc3s2)cc1 | > 108 | 1 | > 108 | ≥ 108 | 1 |  |  |  |  |  |  |  |  | 
12 | O=[N+]([O-])c1ccc(-c2nnc(-c3cccnc3)n2Nc2nc3ccc(Br)cc3s2)cc1 | > 13.2 | <1 | > 13.2 | 13.2 (≈ 26.7 µM) | <1 |  |  |  |  |  |  |  |  | 
13 | O=[N+]([O-])c1ccc(-c2nnc(-c3cccnc3)n2Nc2nc3ccc([N+](=O)[O-])cc3s2)cc1 | > 50.8 | <1 | > 50.8 | 50.8 (≈ 110 µM) | <1 |  |  |  |  |  |  |  |  | 
14 | Cc1ccc2nc(Nn3c(-c4ccc([N+](=O)[O-])cc4)nnc3-c3cccnc3)sc2c1 | > 64.4 | <1 | > 64.4 | 64.4 (≈ 150 µM) | <1 |  |  |  |  |  |  |  |  | 
15 | COc1ccc2nc(Nn3c(-c4ccc([N+](=O)[O-])cc4)nnc3-c3cccnc3)sc2c1 | > 12.9 | <1 | > 12.9 | 12.9 (≈ 29 µM) | <1 |  |  |  |  |  |  |  |  | 
16 | O=[N+]([O-])c1ccc(-c2nnc(-c3cccnc3)n2Nc2nc3ccc(Cl)cc3s2)cc1 | > 53.7 | <1 | > 53.7 | 53.7 (≈ 119 µM) | <1 |  |  |  |  |  |  |  |  | 
17 | Cc1cccc2sc(Nn3c(-c4ccc([N+](=O)[O-])cc4)nnc3-c3cccnc3)nc12 | > 13.5 | <1 | > 13.5 | 13.5 (≈ 31.4 µM) | <1 |  |  |  |  |  |  |  |  | 
18 | O=[N+]([O-])c1ccc(-c2nnc(-c3cccnc3)n2Nc2nc3c([N+](=O)[O-])cccc3s2)cc1 | > 13.8 | <1 | > 13.8 | 13.8 (≈ 29.9 µM) | <1 |  |  |  |  |  |  |  |  | 

Row | Compound | IC50 [1] [µg/mL] | Ratio CC50/IC50 [2] | IC50 [3] [µg/mL] | CC50 at 120 h [4] [µg/mL] | Ratio CC50/IC50 [5] | MIC99 (Aspergillus clavatus) [µg/mL] | MIC99 (Staphylococcus aureus) [µg/mL] | MIC99 (Candida albicans) [µg/mL] | MIC99 (Streptococcus pyogenes) [µg/mL] | growth inhibition (GI) [6] [%] | MIC99 (Aspergillus niger) [µg/mL] | MIC99 (Escherichia coli) [µg/mL] | MIC [7] [µg/mL] | MIC99 (Pseudomonas aeruginosa) [µg/mL]
19 | O=[N+]([O-])c1ccc(-c2nnc(-c3cccnc3)n2Nc2nc3cc(Cl)c(Cl)cc3s2)cc1 | > 68.6 | <1 | > 68.6 | 68.7 (≈ 142 µM) | <1 |  |  |  |  |  |  |  |  | 
20 | O=[N+]([O-])c1ccc(-c2nnc(-c3cccnc3)n2Nc2nc3c(Cl)cccc3s2)cc1 | > 15.5 | <1 | > 15.5 | 15.6 (≈ 34.6 µM) | <1 |  |  |  |  |  |  |  |  | 
21 | O=[N+]([O-])c1ccc2nc(Nn3c(-c4ccc(Cl)cc4)nnc3-c3cccnc3)sc2c1 | > 62.1 | <1 | > 62.1 | 62.1 (≈ 138 µM) | <1 | > 1000 | 125 (≈ 278 µM) | 500 (≈ 1110 µM) | 100 (≈ 222 µM) | 98 | 500 (≈ 1110 µM) | 250 (≈ 556 µM) | 500 (≈ 1110 µM) | 125 (≈ 278 µM)
22 | Cc1ccc2nc(Nn3c(-c4ccc(Cl)cc4)nnc3-c3cccnc3)sc2c1 | > 75.5 | <1 | > 75.5 | 75.5 (≈ 180 µM) | <1 | 1000 (≈ 2390 µM) | 500 (≈ 1190 µM) | 1000 (≈ 2390 µM) | 500 (≈ 1190 µM) | 95 | 1000 (≈ 2390 µM) | 500 (≈ 1190 µM) | 50 (≈ 119 µM) | 500 (≈ 1190 µM)
23 | COc1ccc2nc(Nn3c(-c4ccc(Cl)cc4)nnc3-c3cccnc3)sc2c1 | > 66.8 | <1 | > 66.8 | 66.8 (≈ 154 µM) | <1 | 500 (≈ 1150 µM) | 500 (≈ 1150 µM) | 250 (≈ 575 µM) | 500 (≈ 1150 µM) | 98 | 500 (≈ 1150 µM) | 500 (≈ 1150 µM) | 500 (≈ 1150 µM) | 250 (≈ 575 µM)
24 | Clc1ccc(-c2nnc(-c3cccnc3)n2Nc2nc3ccc(Cl)cc3s2)cc1 | > 54.3 | <1 | > 54.3 | 54.3 (≈ 124 µM) | <1 | 1000 (≈ 2280 µM) | 250 (≈ 569 µM) | 100 (≈ 228 µM) | 500 (≈ 1140 µM) | 96 | 500 (≈ 1140 µM) | 1000 (≈ 2280 µM) | 250 (≈ 569 µM) | 500 (≈ 1140 µM)
25 | Cc1cccc2sc(Nn3c(-c4ccc(Cl)cc4)nnc3-c3cccnc3)nc12 | > 36.4 | <1 | > 36.4 | 36.5 (≈ 87 µM) | <1 | 500 (≈ 1190 µM) | 100 (≈ 239 µM) | 200 (≈ 477 µM) | 1000 (≈ 2390 µM) | 95 | 500 (≈ 1190 µM) | 500 (≈ 1190 µM) | 50 (≈ 119 µM) | 250 (≈ 597 µM)
26 | O=[N+]([O-])c1cccc2sc(Nn3c(-c4ccc(Cl)cc4)nnc3-c3cccnc3)nc12 | > 21.3 | <1 | > 21.3 | 21.3 (≈ 47.4 µM) | <1 | 500 (≈ 1110 µM) | 200 (≈ 445 µM) | 100 (≈ 222 µM) | 250 (≈ 556 µM) | 97 | 500 (≈ 1110 µM) | 100 (≈ 222 µM) | 500 (≈ 1110 µM) | 125 (≈ 278 µM)
27 | Clc1ccc(-c2nnc(-c3cccnc3)n2Nc2nc3cc(Cl)c(Cl)cc3s2)cc1 | > 52.1 | <1 | > 52.1 | 52.1 (≈ 110 µM) | <1 | 1000 (≈ 2110 µM) | 500 (≈ 1060 µM) | 250 (≈ 528 µM) | 500 (≈ 1060 µM) | 98 | 250 (≈ 528 µM) | 500 (≈ 1060 µM) | 250 (≈ 528 µM) | 250 (≈ 528 µM)
28 | Clc1ccc(-c2nnc(-c3cccnc3)n2Nc2nc3c(Cl)cccc3s2)cc1 | > 27.2 | <1 | > 27.2 | 27.2 (≈ 61.8 µM) | <1 | 500 (≈ 1140 µM) | 250 (≈ 569 µM) | 200 (≈ 455 µM) | 500 (≈ 1140 µM) | 98 | 500 (≈ 1140 µM) | 100 (≈ 228 µM) | 12.5 (≈ 28.5 µM) | 62.5 (≈ 142 µM)
29 | O=[N+]([O-])c1ccc(-c2nnc(-c3cccnc3)o2)cc1 | > 73.5 | <1 | > 73.5 | 73.5 (≈ 274 µM) | <1 |  |  |  |  |  |  |  |  | 
30 | CC1(C)S[C@@H]2[C@H](NC(=O)[C@H](N)c3ccccc3)C(=O)N2[C@H]1C(=O)O [AMPICILLIN] |  |  |  |  |  |  | 250 (≈ 715 µM) |  | 100 (≈ 286 µM) |  |  | 100 (≈ 286 µM) |  | 100 (≈ 286 µM)
31 | Clc1ccccc1C(c1ccccc1)(c1ccccc1)n1ccnc1 [CLOTRIMAZOLE] |  |  |  |  |  |  |  |  |  | 96 |  |  | 20.4 (≈ 59.2 µM) | 
32 | Clc1ccc(COC(Cn2ccnc2)c2ccc(Cl)cc2Cl)cc1 (stereo not given) [ECONAZOLE] |  |  |  |  |  |  |  |  |  | 99 |  |  | 12.5 (≈ 32.7 µM) | 
33 | COC1=CC(=O)C[C@@H](C)[C@]12Oc1c(Cl)c(OC)cc(OC)c1C2=O [GRISEOFULVIN] |  |  |  |  |  | 100 (≈ 283 µM) |  | 500 (≈ 1420 µM) |  |  | 100 (≈ 283 µM) |  |  | 
34 | NNC(=O)c1ccncc1 [ISONIAZID] |  |  |  |  |  |  |  |  |  | 99 |  |  | 0.2 (≈ 1.46 µM) | 
35 | Cc1ccnc2c1NC(=O)c1cccnc1N2C1CC1 [NEVIRAPINE] |  | >80 | > 0.05 | > 4 |  |  |  |  |  |  |  |  |  | 
36 | CO[C@H]1/C=C/O[C@@]2(C)Oc3c(C)c(O)c4c(O)c(c(/C=N/N5CCN(C)CC5)c(O)c4c3C2=O)NC(=O)/C(C)=C\C=C\[C@H](C)[C@H](O)[C@@H](C)[C@@H](O)[C@@H](C)[C@H](OC(C)=O)[C@@H]1C [RIFAMPIN] |  |  |  |  |  |  |  |  |  | 99 |  |  | 40 (≈ 48.6 µM) | 
